In ChEMBL document CHEMBL4765275, “Discovery of novel tertiary amide derivatives as NEDDylation pathway activators to inhibit the tumor progression in vitro and in vivo” (Eur J Med Chem, 2020):
The source made the active and inactive calls. The rule behind the calls is not given here.

Experiments:
MGC-803 [1] = experiment: Antiproliferative activity against human MGC-803 cells measured after 48 hrs by MTT assay; type: functional, cell-based
MCF7 = experiment: Antiproliferative activity against human MCF7 cells measured after 48 hrs by MTT assay; type: functional, cell-based; details: MCF7, 48 h
PC-3 = experiment: Antiproliferative activity against human PC-3 cells measured after 48 hrs by MTT assay; type: functional, cell-based; details: PC-3, 48 h
MGC-803 [2] = experiment: Induction of morphological changes in human MGC-803 cells assessed as cell rounding at 50 to 150 nmol/L measured after 48 hrs by bright field microscopic analysis; type: functional, cell-based; details: dose 50-150 nmol/L
MGC-803 [3] = experiment: Induction of morphological changes in human MGC-803 cells assessed as increase in cell debris at 50 to 150 nmol/L measured after 48 hrs by bright field microscopic analysis; type: functional, cell-based; details: dose 50-150 nmol/L
MGC-803 [4] = experiment: Induction of morphological changes in human MGC-803 cells assessed as nuclear fragmentation at 50 to 150 nmol/L measured after 48 hrs by DAPI staining based assay; type: functional, cell-based; details: dose 50-150 nmol/L
MGC-803 [5] = experiment: Cell cycle arrest in human MGC-803 cells assessed as accumulation at G1 phase at 100 nmol/L measured after 48 hrs by propidium iodide staining based flow cytometry (reference value: 40.61%); type: functional
MGC-803 [6] = experiment: Cell cycle arrest in human MGC-803 cells assessed as accumulation at S phase at 100 nmol/L measured after 48 hrs by propidium iodide staining based flow cytometry (reference value: 34.48%); type: functional
MGC-803 [7] = experiment: Cell cycle arrest in human MGC-803 cells assessed as accumulation at S phase at 150 nmol/L measured after 48 hrs by propidium iodide staining based flow cytometry (reference value: 34.48%); type: functional
MGC-803 [8] = experiment: Cell cycle arrest in human MGC-803 cells assessed as accumulation at G2 phase at 150 nmol/L measured after 48 hrs by propidium iodide staining based flow cytometry (reference value: 24.91%); type: functional
MGC-803 [9] = experiment: Induction of apoptosis in human MGC-803 cells assessed as necrotic cells at 50 nmol/L measured after 48 hrs by Annexin V-FITC/propidium iodide staining based flow cytometry (reference value: 0.5%); type: functional
MGC-803 [10] = experiment: Induction of apoptosis in human MGC-803 cells assessed as early apoptotic cells at 75 nmol/L measured after 48 hrs by Annexin V-FITC/propidium iodide staining based flow cytometry (reference value: 2.2%); type: functional
MGC-803 [11] = experiment: Induction of apoptosis in human MGC-803 cells assessed as necrotic cells at 75 nmol/L measured after 48 hrs by Annexin V-FITC/propidium iodide staining based flow cytometry (reference value: 0.5%); type: functional
MGC-803 [12] = experiment: Induction of apoptosis in human MGC-803 cells assessed as late apoptotic cells at 100 nmol/L measured after 48 hrs by Annexin V-FITC/propidium iodide staining based flow cytometry (reference value: 5.6%); type: functional
MGC-803 [13] = experiment: Induction of apoptosis in human MGC-803 cells assessed as viable cells at 150 nmol/L measured after 48 hrs by Annexin V-FITC/propidium iodide staining based flow cytometry (reference value: 91.7%); type: functional; details: read-out: Activity
MGC-803 [14] = experiment: Induction of apoptosis in human MGC-803 cells assessed as late apoptotic cells at 150 nmol/L measured after 48 hrs by Annexin V-FITC/propidium iodide staining based flow cytometry (reference value: 5.6%); type: functional
MGC-803 [15] = experiment: Induction of apoptosis in human MGC-803 cells assessed as increase in activated caspase-9 expression at 50 to 150 nmol/L measured after 48 hrs by Western blot analysis; type: functional, cell-based; details: dose 50-150 nmol/L
MGC-803 [16] = experiment: Induction of apoptosis in human MGC-803 cells assessed as upregulation of FADD expression at 50 to 150 nmol/L measured after 48 hrs by Western blot analysis; type: functional, cell-based; details: dose 50-150 nmol/L
MGC-803 [17] = experiment: Induction of apoptosis in human MGC-803 cells assessed as upregulation of Bax expression at 50 to 150 nmol/L measured after 48 hrs by Western blot analysis; type: functional, cell-based; details: dose 50-150 nmol/L
MGC-803 [18] = experiment: Induction of apoptosis in human MGC-803 cells assessed as upregulation of Bad expression at 50 to 150 nmol/L measured after 48 hrs by Western blot analysis; type: functional, cell-based; details: dose 50-150 nmol/L
MGC-803 [19] = experiment: Induction of apoptosis in human MGC-803 cells assessed as down regulation of Bcl-2 expression at 50 to 150 nmol/L measured after 48 hrs by Western blot analysis; type: functional, cell-based; details: dose 50-150 nmol/L
MGC-803 [20] = experiment: Induction of apoptosis in human MGC-803 cells assessed as down regulation of c-IAP1 expression at 50 to 150 nmol/L measured after 48 hrs by Western blot analysis; type: functional, cell-based; details: dose 50-150 nmol/L
[21] = target: T1, NEDD8-activating enzyme E1 regulatory subunit (Homo sapiens) (UniProt Q13564); experiment: Activation of NAE1-mediated neddylation in human MGC-803 cells assessed as increase in Nedd8 neddylation at 50 to 150 nmol/L measured after 24 hrs by Western blot analysis; type: cell-based; details: filed as activator, dose 50-150 nmol/L
T1 sequence (whole entry): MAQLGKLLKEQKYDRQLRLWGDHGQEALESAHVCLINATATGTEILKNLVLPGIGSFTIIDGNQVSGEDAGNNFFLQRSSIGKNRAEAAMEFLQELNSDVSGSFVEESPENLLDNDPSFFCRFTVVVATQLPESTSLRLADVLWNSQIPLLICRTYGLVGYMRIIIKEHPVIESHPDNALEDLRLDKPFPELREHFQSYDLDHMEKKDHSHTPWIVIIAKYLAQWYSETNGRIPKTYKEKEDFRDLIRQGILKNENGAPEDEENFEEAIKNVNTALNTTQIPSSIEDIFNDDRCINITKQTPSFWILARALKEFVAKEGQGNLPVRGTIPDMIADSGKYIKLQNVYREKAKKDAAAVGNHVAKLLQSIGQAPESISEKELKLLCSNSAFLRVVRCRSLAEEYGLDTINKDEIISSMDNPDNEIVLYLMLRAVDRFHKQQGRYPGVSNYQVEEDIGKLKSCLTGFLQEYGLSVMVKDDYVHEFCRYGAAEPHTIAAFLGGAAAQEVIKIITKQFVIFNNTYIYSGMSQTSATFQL

MGC-803 [22] = experiment: Induction of apoptosis in human MGC-803 cells assessed as down regulation of c-IAP1 expression at 150 nmol/L measured after 24 hrs in presence of NEDDylation inhibitor MLN4924 by Western blot analysis; type: functional, cell-based
MGC-803 [23] = experiment: Induction of apoptosis in human MGC-803 cells assessed as down regulation of c-IAP1 expression at 150 nmol/L measured after 24 hrs in presence of protein synthesis inhibitor CHX by Western blot analysis; type: functional, cell-based
MGC-803 [24] = experiment: Antitumor activity against human MGC-803 cells xenografted in mouse assessed as reduction in tumor volume at 100 to 150 mg/kg, sc measured after 28 days by caliper method; type: functional, organism-based; details: dose 100-150 mg/kg, time 28.0 day
MGC-803 [25] = experiment: Antitumor activity against human MGC-803 cells xenografted in mouse assessed as reduction in tumor weight at 150 mg/kg, sc measured after 28 days relative to control; type: functional; design: scale not given: the % may be the effect or the level left; details: time 28 day
MGC-803 [26] = experiment: Toxicity in human MGC-803 cells xenografted mouse assessed as change in body weight at 50 to 150 mg/kg, sc measured after 28 days; type: organism-based; details: in vivo, 672 h, dose 50-150 mg/kg, time 28 day

IC50 (MGC-803 [1]; MGC-803, 48 h): 90 nM | IC50 (MCF7): 100 nM | IC50 (PC-3): 1150 nM | Activity [21]: Active
Structure (SMILES): COc1ccc(CN(C(=O)Cc2cccs2)c2cc(OC)c(OC)c(OC)c2)cc1
Activity (MGC-803 [1]): Dose-dependent effect | Activity (MGC-803 [2]): Active | Activity (MGC-803 [3]): Active | Activity (MGC-803 [4]): Active | Activity (MGC-803 [5]): 37.76% | Activity (MGC-803 [6]): 21.52% | Activity (MGC-803 [7]): 16.21% | Activity (MGC-803 [8]): 52.97% | Activity (MGC-803 [9]): 0.6% | Activity (MGC-803 [10]): 12.6% | Activity (MGC-803 [11]): 2% | Activity (MGC-803 [12]): 23.2% | viability at 0.15 µM (MGC-803 [13]): 8.6% | Activity (MGC-803 [14]): 47.6% | Activity (MGC-803 [15]): Active | Activity (MGC-803 [16]): Active | Activity (MGC-803 [17]): Active | Activity (MGC-803 [18]): Active | Activity (MGC-803 [19]): Active | Activity (MGC-803 [20]): Active | Activity (MGC-803 [22]): inactive | Activity (MGC-803 [23]): Active | Activity (MGC-803 [24]): Active | Activity (MGC-803 [25]): 46% | Activity (MGC-803 [26]): Non-Toxic
